Experimental data taken from patent US11447482B1, “Imidazopyridine and oxazolopyridine derivatives and analogs thereof, methods of preparation thereof, methods of HIF-2A pathway inhibition, and induction of ferroptosis” (KUDA Therapeutics, Inc., priority 2019, dated 2022).

Tested on: HIF-2α transcriptional activity
Assay: Hypoxia-responsive element-driven luciferase (HRE-Luc) assay
Assay type: cell-based, human
Conditions: 786-0 CCRCC cells stably expressing HRE-Luc, 24 hours treatment
Method: Screens for inhibitory activity of compounds described herein were performed using 786-0 CCRCC cells that stably express HRE-Luc: 5 copies of the hypoxia-responsive element (HRE) fused to the pGL3 luciferase reporter (Promega Corp, Madison Wis.). 786-0 cells are pVHL deficient and thus constitutively express HIF-2α independently of cellular oxygen tension (Maxwell, Wiesener et al. 1999). Since 786-0 cells lack HIF-1α, HRE-driven luciferase activity is primarily HIF-2α driven, and has been previously validated (Koh, Lemos et al. 2011). Cells were maintained at log phase growth in Dulbecco's […] (DMEM) with 10% FBS in a humidified incubator at 37° C. with 5% CO2. For screening assays, cells were seeded at a density of 4,000 cells in 50 μl of complete media/well in quadruplicate wells/point in a 96-well plate. 24 hours later, 50 μl of a 2× concentration of test compound was added to each well. Compounds were diluted from a 5-10 mM stock in DMSO and final concentrations of DMSO in each well in controls and treated wells were kept constant at ≤0.6% DMSO. After 24 hours' treatment, luciferase activity was measured using the Steady-Glo Luciferase assay system (Promega Corp) according to the manufacturer's protocol. Cell viability was measured in quadruplicate parallel wells using resazurin as recommended by the manufacturer (R&D systems, Minneapolis, Minn.). Data for luciferase and resazurin were normalized to DMSO treated controls (defining 100%) and wells containing assay reagent but no cells (defining 0%), and graphed using the log inhibitor versus normalized response option in Prism7 Graphpad software. Representative data determined using Steady-Glo luciferase and resazurin are shown in FIGS. 1A and 1B respectively, with error bars showing standard error of the mean (SEM).

Row | SMILES | IC50 (Homo sapiens) [µM] | IC50 [µM]
1 | COc1ccc2[nH]c(Nc3nnc(-c4ccc(F)cc4)o3)nc2n1 [KD003, 5-(4-Fluorophenyl)-N-(5-methoxy-1H-imidazo[4,5-b]pyridin-2-yl)-1,3,4-oxadiazol-2-amine] | 8.16 | 
2 | Fc1ccc(-c2nnc(Nc3nc4cnc(Cl)cc4[nH]3)o2)cc1 [KD004, N-(6-Chloro-1H-imidazo[4,5-c]pyridin-2-yl)-5-(4-fluorophenyl)-1,3,4-oxadiazol-2-amine] | 40.3 | 
3 | Fc1ccc(-c2nnc(Nc3nc4cnc(C(F)(F)F)cc4[nH]3)o2)cc1 [KD005HCL, 5-(4-Fluorophenyl)-N-(6-(trifluoromethyl)-1H-imidazo[4,5-c]pyridin-2-yl)-1,3,4-oxadiazol-2-amine] | 16.1 | 
4 | Cc1cncc2nc(Nc3nnc(-c4ccc(F)cc4)o3)[nH]c12 [KD006TFA, 5-(4-Fluorophenyl)-N-(7-methyl-1H-imidazo[4,5-c]pyridin-2-yl)-1,3,4-oxadiazol-2-amine] | 23.8 | 
5 | COc1ccc2nc(Nc3nnc(-c4ccc(F)cc4)o3)sc2n1 [KD008, 5-(4-Fluorophenyl)-N-(5-methoxythiazolo[5,4-b]pyridin-2-yl)-1,3,4-oxadiazol-2-amine] | 52.3 | 
6 | Fc1ccc(-c2nnc(Nc3nc4cnc(N5CCOCC5)cc4[nH]3)o2)cc1 [KD009, 5-(4-Fluorophenyl)-N-(6-morpholino-1H-imidazo[4,5-c]pyridin-2-yl)-1,3,4-oxadiazol-2-amine] | 15.4 | 
7 | CN1CCN(c2cc3[nH]c(Nc4nnc(-c5ccc(F)cc5)o4)nc3cn2)CC1 [KD010, 5-(4-Fluorophenyl)-N-(6-(4-methylpiperazin-1-yl)-1H-imidazo[4,5-c]pyridin-2-yl)-1,3,4-oxadiazol-2-amine] | > 100 | 
8 | Fc1ccc(-c2nnc(Nc3nc4cnc(Cl)nc4[nH]3)o2)cc1 [KD013, N-(2-Chloro-9H-purin-8-yl)-5-(4-fluorophenyl)-1,3,4-oxadiazol-2-amine] | 37.6 | 
9 | CS(=O)(=O)C1CCN(c2cc3[nH]c(Nc4nnc(-c5ccc(F)cc5)o4)nc3cn2)CC1 [KD015, 5-(4-Fluorophenyl)-N-(6-(4-(methylsulfonyl)piperidin-1-yl)-1H-imidazo[4,5-c]pyridin-2-yl)-1,3,4-oxadiazol-2-amine] | > 100 | 
10 | Fc1ccc(-c2nnc(Nc3nc4ccnc(N5CCOCC5)c4[nH]3)o2)cc1 [KD016, 5-(4-Fluorophenyl)-N-(4-morpholino-3H-imidazo[4,5-c]pyridin-2-yl)-1,3,4-oxadiazol-2-amine] | 10.2 | 
11 | Fc1ccc(-c2nnc(Nc3nc4cncc(N5CCOCC5)c4[nH]3)o2)cc1 [KD017, 5-(4-Fluorophenyl)-N-(7-morpholino-1H-imidazo[4,5-c]pyridin-2-yl)-1,3,4-oxadiazol-2-amine] | 16.3 | 
12 | COc1cccc(-c2nccc3nc(Nc4nnc(-c5ccc(F)cc5)o4)[nH]c23)c1 [KD018, 5-(4-Fluorophenyl)-N-(4-(3-methoxyphenyl)-3H-imidazo[4,5-c]pyridin-2-yl)-1,3,4-oxadiazol-2-amine] | 72.7 | 
13 | COc1nccc2[nH]c(Nc3nnc(-c4ccc(C(F)(F)F)cc4)o3)nc12 [KD019, N-(4-methoxy-1H-imidazo[4,5-c]pyridin-2-yl)-5-(4-(trifluoromethyl)phenyl)-1,3,4-oxadiazol-2-amine] | 32.6 | 
14 | COc1nccc2[nH]c(Nc3nnc(-c4ccc(OC(F)(F)F)cc4)o3)nc12 [KD020, N-(4-methoxy-1H-imidazo[4,5-c]pyridin-2-yl)-5-(4-(trifluoromethoxy)phenyl)-1,3,4-oxadiazol-2-amine] | 16.5 | 
15 | COc1ccc(-c2nnc(Nc3nc4c(Cl)nccc4[nH]3)o2)cc1 [KD022, N-(4-chloro-1H-imidazo[4,5-c]75yridine-2-yl)-5-(4-methoxyphenyl)-1,3,4-oxadiazol-2-amine] |  | 28.3
16 | COc1nccc2[nH]c(Nc3nnc(-c4ccc5c(c4)OCO5)o3)nc12 [KD026, N-(4-Methoxy-1H-imidazo[4,5-c]pyridin-2-yl)-5-(benzo[d][1,3]dioxol-5-yl)-1,3,4-oxadiazol-2-amine] | 2.72 | 
17 | COc1nccc2[nH]c(Nc3nnc(-c4ccc(N(C)C)cc4)o3)nc12 [KD027, N-(4-Methoxy-1H-imidazo[4,5-c]pyridin-2-yl)-5-(4-(dimethylamino)phenyl)-1,3,4-oxadiazol-2-amine] | 2.83 | 
18 | COc1nccc2[nH]c(Nc3nnc(-c4ccc(C)cc4)o3)nc12 [KD028, N-(4-methoxy-1H-imidazo[4,5-c]pyridin-2-yl)-5-(p-tolyl)-1,3,4-oxadiazol-2-amine] | 9.12 | 
19 | COc1ccc(-c2nnc(Nc3nc4ncccc4o3)o2)cc1 [KD029, N-(5-(4-Methoxyphenyl)-1,3,4-oxadiazol-2-yl)oxazolo[4,5-b]pyridin-2-amine] | 6.1 | 
20 | Fc1ccc(-c2nnc(Nc3nc4ccnc(-c5ccc6c(c5)OCO6)c4[nH]3)o2)cc1 [KD030, N-(4-(Benzo[d][1,3]dioxol-5-yl)-3H-imidazo[4,5-c]pyridin-2-yl)-5-(4-fluorophenyl)-1,3,4-oxadiazol-2-amine] | 19.9 | 
21 | COc1nccc2[nH]c(Nc3nnc(-c4ccc(C#N)cc4)o3)nc12 [KD031, 4-(5-((4-Methoxy-1H-imidazo[4,5-c]pyridin-2-yl)amino)-1,3,4-oxadiazol-2-yl) benzonitrile] | 3.7 | 
22 | COc1ccc(-c2nnc(Nc3nc4c(OC)nccc4[nH]3)o2)cc1F [KD032, 5-(3-Fluoro-4-methoxyphenyl)-N-(4-methoxy-1H-imidazo[4,5-c]pyridin-2-yl)-1,3,4-oxadiazol-2-amine] | 1.94 | 
23 | COc1ccc(-c2nnc(Nc3nc4c(OC)nccc4[nH]3)o2)cn1 [KD038, N-(4-Methoxy-1H-imidazo[4,5-c]pyridin-2-yl)-5-(6-methoxypyridin-3-yl)-1,3,4-oxadiazol-2-amine] | 7.6 | 
24 | COc1nccc2[nH]c(Nc3nnc(-c4ccc(OC5CC5)cc4)o3)nc12 [KD040, 5-(4-Cyclopropoxyphenyl)-N-(4-methoxy-1H-imidazo[4,5-c]pyridin-2-yl)-1,3,4-oxadiazol-2-amine] | 6.86 | 
25 | COc1nccc2[nH]c(Nc3nnc(-c4ccc(OC(C)C)cc4)o3)nc12 [KD041, 5-(4-Isopropoxyphenyl)-N-(4-methoxy-1H-imidazo[4,5-c]pyridin-2-yl)-1,3,4-oxadiazol-2-amine] | 22.6 | 
26 | COc1nccc2[nH]c(Nc3nnc(-c4ccc(C(C)(C)C)cc4)o3)nc12 [KD042, 5-(4-(tert-Butyl)phenyl)-N-(4-methoxy-1H-imidazo[4,5-c]pyridin-2-yl)-1,3,4-oxadiazol-2-amine] | > 100 | 
